Assay results: ChEMBL document CHEMBL3603741, “Structure activity relationship of pyridoxazinone substituted RHS analogs of oxabicyclooctane-linked 1,5-naphthyridinyl novel bacterial topoisomerase inhibitors as broad-spectrum antibacterial agents (Part-6)” (Bioorg Med Chem Lett, 2015)
≈ marks a conversion by molar mass, not a printed value.

Key:
Escherichia coli = assay: Antibacterial activity against Escherichia coli ATCC 25922; assay type: functional; details: Escherichia coli, ATCC 25922; read-out: MIC
Staphylococcus aureus [1] = assay: Antibacterial activity against Staphylococcus aureus Smith; assay type: functional; details: Staphylococcus aureus, Smith; read-out: MIC
Pseudomonas aeruginosa = assay: Antibacterial activity against Pseudomonas aeruginosa PAO1; assay type: functional; details: Pseudomonas aeruginosa, PAO1; read-out: MIC
Acinetobacter baumannii = assay: Antibacterial activity against Acinetobacter baumannii IID876; assay type: functional; details: Acinetobacter baumannii, IID876; read-out: MIC
Streptococcus pneumoniae = assay: Antibacterial activity against Streptococcus pneumoniae IID553; assay type: functional; details: Streptococcus pneumoniae, IID553; read-out: MIC
Enterococcus faecium = assay: Antibacterial activity against VanA-resistant Enterococcus faecium; assay type: functional; details: Enterococcus faecium; read-out: MIC
Staphylococcus aureus [2] = assay: Ratio of MIC for quinolone-resistant Staphylococcus aureus MS5935 to MIC for […]; assay type: functional
Staphylococcus aureus [3] = assay: Antibacterial activity against Staphylococcus aureus Smith infected in iv dosed ICR mouse assessed as increase in survival rate administered at 1 hr post infection measured on day 7; assay type: functional
Staphylococcus aureus [4] = assay: Antibacterial activity against Staphylococcus aureus Smith infected in po dosed ICR mouse assessed as increase in survival rate administered at 1 hr post infection measured on day 7; assay type: functional
[5] = target: T1, Voltage-gated inwardly rectifying potassium channel KCNH2 (Homo sapiens, UniProt Q12809); assay: Inhibition of MK499 binding to human ERG
T1 sequence (Q12809 whole entry): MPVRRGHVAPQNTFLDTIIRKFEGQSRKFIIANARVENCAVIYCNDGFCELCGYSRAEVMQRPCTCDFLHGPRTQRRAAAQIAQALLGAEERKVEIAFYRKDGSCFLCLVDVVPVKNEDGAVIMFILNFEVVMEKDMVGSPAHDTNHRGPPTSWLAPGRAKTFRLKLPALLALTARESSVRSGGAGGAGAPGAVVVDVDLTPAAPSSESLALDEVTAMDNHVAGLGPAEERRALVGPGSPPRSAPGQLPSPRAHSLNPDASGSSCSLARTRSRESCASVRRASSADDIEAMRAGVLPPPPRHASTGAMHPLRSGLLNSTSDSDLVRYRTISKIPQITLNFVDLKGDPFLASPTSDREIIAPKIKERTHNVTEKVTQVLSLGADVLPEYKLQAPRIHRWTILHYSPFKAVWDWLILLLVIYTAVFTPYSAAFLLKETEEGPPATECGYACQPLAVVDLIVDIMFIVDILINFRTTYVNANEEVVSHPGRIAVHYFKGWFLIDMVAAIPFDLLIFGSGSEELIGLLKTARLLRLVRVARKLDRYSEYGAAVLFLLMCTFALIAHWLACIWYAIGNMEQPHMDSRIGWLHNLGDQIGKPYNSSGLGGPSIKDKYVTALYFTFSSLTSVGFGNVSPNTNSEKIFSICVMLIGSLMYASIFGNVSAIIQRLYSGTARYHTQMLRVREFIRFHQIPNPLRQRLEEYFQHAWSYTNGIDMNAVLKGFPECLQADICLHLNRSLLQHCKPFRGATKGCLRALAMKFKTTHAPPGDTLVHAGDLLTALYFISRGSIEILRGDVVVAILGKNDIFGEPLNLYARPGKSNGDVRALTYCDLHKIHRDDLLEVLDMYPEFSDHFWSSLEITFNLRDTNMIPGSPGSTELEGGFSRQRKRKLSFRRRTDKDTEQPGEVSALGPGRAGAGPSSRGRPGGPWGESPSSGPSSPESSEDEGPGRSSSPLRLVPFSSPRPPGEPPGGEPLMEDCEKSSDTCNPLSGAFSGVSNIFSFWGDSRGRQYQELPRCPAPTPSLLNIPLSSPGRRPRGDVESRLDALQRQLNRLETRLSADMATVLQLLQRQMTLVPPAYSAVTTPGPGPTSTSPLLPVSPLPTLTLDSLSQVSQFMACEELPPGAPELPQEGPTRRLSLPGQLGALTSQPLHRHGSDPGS

[6] = target: T1, Voltage-gated inwardly rectifying potassium channel KCNH2; assay: Inhibition of human ERG expressed in CHO cells measured for 5 mins by automated patch clamp assay

| Structure (SMILES) | MIC (Escherichia coli) | MIC (Staphylococcus aureus [1]) | MIC (Pseudomonas aeruginosa) | MIC (Acinetobacter baumannii) | MIC (Streptococcus pneumoniae) | MIC (Enterococcus faecium) | Ratio (Staphylococcus aureus [2]) | ED50 (Staphylococcus aureus [3]) | ED50 (Staphylococcus aureus [4]) | IC50 [5] | IC50 [6] |
| --- | --- | --- | --- | --- | --- | --- | --- | --- | --- | --- | --- |
| COc1ccc2ncc(F)c(CCC34CCC(NCc5nc6c(c(C)c5C(C)C)OCC(=O)N6)(CC3)CO4)c2n1 | 32 µg/mL (≈ 58.2 µM) | 32 µg/mL (≈ 58.2 µM) | 32 µg/mL (≈ 58.2 µM) | 32 µg/mL (≈ 58.2 µM) | 32 µg/mL (≈ 58.2 µM) | 32 µg/mL (≈ 58.2 µM) |  |  |  |  |  |
| COc1ccc2ncc(F)c(CCC34CCC(NCc5ccc6c(n5)NC(=O)CO6)(CC3)CO4)c2n1 | 1 µg/mL (≈ 2.03 µM) | 0.02 µg/mL (≈ 0.0405 µM) | 4 µg/mL (≈ 8.1 µM) | 0.5 µg/mL (≈ 1.01 µM) | 0.13 µg/mL (≈ 0.263 µM) | 0.5 µg/mL (≈ 1.01 µM) |  |  |  |  |  |
| COc1ccc2ncc(F)c(CCC34CCC(NCc5nc6c(cc5OC)OCC(=O)N6)(CC3)CO4)c2n1 | 8 µg/mL (≈ 15.3 µM) | 4 µg/mL (≈ 7.64 µM) | 8 µg/mL (≈ 15.3 µM) | 8 µg/mL (≈ 15.3 µM) | 8 µg/mL (≈ 15.3 µM) | 8 µg/mL (≈ 15.3 µM) | <4 |  |  |  |  |
| COc1ccc2ncc(F)c(C[C@H](O)C3CCC(NCc4nc5c(cc4F)OCC(=O)N5)CO3)c2n1 (stereo partly specified) | 4 µg/mL (≈ 7.98 µM) | 0.03 µg/mL (≈ 0.0598 µM) | 16 µg/mL (≈ 31.9 µM) | 1 µg/mL (≈ 1.99 µM) | 0.25 µg/mL (≈ 0.499 µM) | 2 µg/mL (≈ 3.99 µM) |  | 3.2 mg/kg | 6.7 mg/kg |  |  |
| COc1ccc2ncc(F)c(CCC34CCC(N(C)C(=O)c5ccc6c(n5)NC(=O)CO6)(CC3)CO4)c2n1 | 4 µg/mL (≈ 7.67 µM) | 0.03 µg/mL (≈ 0.0575 µM) | 4 µg/mL (≈ 7.67 µM) | 4 µg/mL (≈ 7.67 µM) | 4 µg/mL (≈ 7.67 µM) | 4 µg/mL (≈ 7.67 µM) | <4 |  |  | > 60 µM | > 30 µM |
| COc1ccc2ncc(F)c(CCC34CCC(NCc5nc6c(cc5Cl)OCC(=O)N6)(CC3)CO4)c2n1 | 2 µg/mL (≈ 3.79 µM) | 0.02 µg/mL (≈ 0.0379 µM) | 2 µg/mL (≈ 3.79 µM) | 1 µg/mL (≈ 1.89 µM) | 0.25 µg/mL (≈ 0.473 µM) | 1 µg/mL (≈ 1.89 µM) |  |  |  |  |  |
| COc1ccc2ncc(F)c(CCC34CCC(NCc5ccc6c(n5)N(C)C(=O)CO6)(CC3)CO4)c2n1 | 16 µg/mL (≈ 31.5 µM) | 2 µg/mL (≈ 3.94 µM) | 16 µg/mL (≈ 31.5 µM) | 16 µg/mL (≈ 31.5 µM) | 2 µg/mL (≈ 3.94 µM) | 16 µg/mL (≈ 31.5 µM) |  |  |  |  |  |
| COc1ccc2ncc(F)c(CCC34CCC(NC(=O)c5ccc6c(n5)NC(=O)CO6)(CC3)CO4)c2n1 | 8 µg/mL (≈ 15.8 µM) | 0.02 µg/mL (≈ 0.0394 µM) | 8 µg/mL (≈ 15.8 µM) | 8 µg/mL (≈ 15.8 µM) | 0.5 µg/mL (≈ 0.985 µM) | 1 µg/mL (≈ 1.97 µM) |  |  |  |  |  |
| COc1ccc2ncc(F)c(C[C@H](O)C3CCC(NCc4ccc5c(n4)NC(=O)CO5)CO3)c2n1 (stereo partly specified) | 16 µg/mL (≈ 33.1 µM) | 0.03 µg/mL (≈ 0.062 µM) | 32 µg/mL (≈ 66.2 µM) | 2 µg/mL (≈ 4.14 µM) | 2 µg/mL (≈ 4.14 µM) | 2 µg/mL (≈ 4.14 µM) | <4 |  |  |  |  |
| COc1ccc2ncc(F)c(CCC34CCC(NCc5nc6c(cc5C)OCC(=O)N6)(CC3)CO4)c2n1 | 2 µg/mL (≈ 3.94 µM) | 0.06 µg/mL (≈ 0.118 µM) | 8 µg/mL (≈ 15.8 µM) | 0.5 µg/mL (≈ 0.985 µM) | 1 µg/mL (≈ 1.97 µM) | 1 µg/mL (≈ 1.97 µM) |  |  |  |  |  |
| COc1ccc2ncc(F)c(CCC34CCC(NCc5nc6c(cc5F)OCC(=O)N6)(CC3)CO4)c2n1 | 2 µg/mL (≈ 3.91 µM) | 0.02 µg/mL (≈ 0.0391 µM) | 8 µg/mL (≈ 15.6 µM) | 0.5 µg/mL (≈ 0.977 µM) | 0.13 µg/mL (≈ 0.254 µM) | 1 µg/mL (≈ 1.95 µM) |  | 2.5 mg/kg | 3.9 mg/kg |  |  |
| COc1ccc2ncc(F)c(CCC34CCC(NCc5nc6c(c(C)c5C)OCC(=O)N6)(CC3)CO4)c2n1 | 2 µg/mL (≈ 3.83 µM) | 1.06 µg/mL (≈ 2.03 µM) | 16 µg/mL (≈ 30.7 µM) | 4 µg/mL (≈ 7.67 µM) | 8 µg/mL (≈ 15.3 µM) | 2 µg/mL (≈ 3.83 µM) |  |  |  |  |  |
